Laboratory results: patent publication US20110092476A1, “Bicycloheteroaryl compounds as P2X7 modulators and uses thereof” (Renovis, Inc., priority 2006, published 2011)
Converted amounts (≈) assume the structure as drawn. Where two headings read alike, the source gives them in different places.

How the values were obtained:
P2X7 receptor = target: T1, P2X7 receptor (Homo sapiens, UniProt Q99572); test: IL-1β release assay in differentiated THP-1 cells stimulated with BzATP (Example 9); format: cell-based; conditions: BzATP 250 uM; for inhibition at 0.3 µM: differentiated THP-1 cells, read-out: IL-1β % Inhib. @ 0.3 or 0.1 uM
T1 construct: host or cells: THP-1 cells differentiated with LPS and IFN-γ
T1 sequence (Q99572 1-595): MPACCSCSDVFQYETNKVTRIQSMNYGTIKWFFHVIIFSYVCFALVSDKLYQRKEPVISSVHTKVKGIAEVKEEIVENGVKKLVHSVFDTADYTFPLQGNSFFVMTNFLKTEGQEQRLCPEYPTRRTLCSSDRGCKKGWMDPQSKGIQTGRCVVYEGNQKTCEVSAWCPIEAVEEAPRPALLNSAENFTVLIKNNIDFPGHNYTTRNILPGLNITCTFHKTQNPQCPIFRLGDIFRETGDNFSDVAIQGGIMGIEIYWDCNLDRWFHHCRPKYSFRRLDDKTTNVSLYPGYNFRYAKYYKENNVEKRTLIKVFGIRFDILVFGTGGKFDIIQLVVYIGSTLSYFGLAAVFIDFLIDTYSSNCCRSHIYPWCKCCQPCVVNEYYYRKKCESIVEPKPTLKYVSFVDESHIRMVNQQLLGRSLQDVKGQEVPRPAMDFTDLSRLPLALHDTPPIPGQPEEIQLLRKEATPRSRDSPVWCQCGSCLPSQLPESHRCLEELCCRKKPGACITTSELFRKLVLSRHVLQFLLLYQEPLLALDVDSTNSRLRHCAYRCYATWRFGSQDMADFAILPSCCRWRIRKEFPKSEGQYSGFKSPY
Outline: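 IC50 derived by four-parameter logistic fit of percent inhibition of IL-1β release (ELISA, background-adjusted). Release triggered by 45 min BzATP at 250 uM final after 30 min compound pretreatment of THP-1 cells previously differentiated 16 h (LPS, IFN-γ, 100 ng/mL each) and re-primed 2 h with LPS.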

[1] = Pharmacokinetic evaluation following intravenous and oral administration in rats (oral bioavailability); format: in vivo, rat; conditions: male Sprague-Dawley rats, PO 1 to 5 mg/kg vs IV 1 mg/kg, AUCinf dose-normalized
Description: Male Sprague-Dawley rats are acclimatized for at least 24 hours prior to experiment initiation. During acclimation period, all animals receive food and water ad libitum. However, food but not water is removed from the animal's cages at least 12 hours before initiation of the experiment. During the first 3 hours of experimentation, the animals receive only water ad libitum. At least three animals each are tested for intravenous and oral dosage. For intravenous formulation, compounds were dissolved (0.25 to 1 mg/mL) in a mixture of 3% dimethyl sulfoxide, 40% PEG 400 and the rest percentage of 40% Captisol in water (w/v). The animals are weighed before dosing. The determined body weight is used to calculate the dose volume for each animal.
Dose volume (mL/kg)=1 mg/kg/formulation concentration (mg/mL)
In instances where the formulation concentrations were less than 0.5 mg/mL, the dosing volume is about 2 mL/kg.
PO rats are typically dosed through oral gavage following the same dose volume formula as IV to achieve a dose level of 1 to 5 mg/kg. […] About 250 uL of blood is obtained at each time point from the animal. Equal volumes of 0.9% normal saline are replaced to prevent dehydration. The whole blood samples are maintained on ice until centrifugation. Blood samples are then centrifuged at 14,000 rpm for 10 minutes at 4° C. and the upper plasma layer transferred into a clean vial and stored at −80° C. The resulting plasma samples are then analyzed by liquid chromatography-tandem mass spectrometry. Following the measurement of plasma samples and dosing solutions, plasma concentration-time curve is plotted. Plasma exposure is calculated as the area under the concentration-time curve extrapolated to time infinite (AUinf). The AUCinf is averaged and the oral bioavailability (% F) for individual animal is calculated as:
AUCinf (PO)/AUCinf (IV), normalized to their respective dose levels. The % F is reported as the mean % F of all animals dosed orally with the compound of the invention at the specified level (see Table 4 below).
For the purpose of Table 4, oral bioavailability of each compound is expressed as follows: […]

[2] = Half-life in human liver microsomes (HLM); conditions: pH 7.4
Description: Test compounds (1 μM) are incubated with 3.3 mM MgCl2 and 0.78 mg/mL HLM (HL101) in 100 mM potassium phosphate buffer (pH 7.4) at 37° C. on the 96-deep well plate. The reaction mixture is split into two groups, a non-P450 and a P450 group. NADPH is only added to the reaction mixture of the P450 group. An aliquot of samples of P450 group is collected at 0, 10, 30, and 60 min time point, where 0 min time point indicated the time when NADPH is added into the reaction mixture of P450 group. […] Collected aliquots are extracted with acetonitrile solution containing an internal standard. […] The compound concentration in supernatant is measured by LC/MS/MS system.
The half-life value is obtained by plotting the natural logarithm of the peak area ratio of compounds/internal standard versus time. The slope of the line of best fit through the points yields the rate of metabolism (k). This is converted to a half-life value using following equations:

[3] = Determination of aqueous (kinetic) solubility; format: physicochemical; conditions: aqueous buffer, kinetic from dmso stock, buffer pH 7.4
Description: The mixture was vortexed for 1 hour and equilibrated overnight at room temperature. The mixture was filtered through a saturated filter and the filtrate was analyzed by LC/MS/MS.
For the purpose of Table 5, solubility of each compound is expressed as follows: […]

Compound	inhibition at 0.3 µM (P2X7 receptor; 0.3 μM compound (symbols +))	Oral Bioavailability F (%) [1]	half-life at 1 μM [2]	inhibition at 0.3 µM (P2X7 receptor; 0.3 μM compound, "+" symbols)	solubility [3]	IC50 (P2X7 receptor; THP-1 cells, IL-1β by ELISA)
O=C(Cc1ccc(Cl)c(Cl)c1)Nc1cccc2c(=O)n(CCO)ccc12 [Compound 8]	> 76%	+ (0-25% F)	1.41 h	–	–	–
O=C(Cc1ccc(Cl)c(C(F)(F)F)c1)Nc1cccc2c(=O)n(C[C@@H]3CCCN3)ccc12 [Compound 232, 2-(4-Chloro-3-trifluoromethyl-phenyl)-N-(1-oxo-2-(S)-1-pyrrolidin-2-ylmethyl-1,2-dihydro-isoquinolin-5-yl)-acetamide]	–	–	7.37 h	> 76%	–	–
C[C@H](CO)n1ccc2c(NC(=O)Cc3ccc(C(F)(F)F)c(F)c3)cccc2c1=O [Compound 335]	–	++ (26-50% F)	0.93 h	> 76%	> 75 µM	–
C[C@H](C(=O)Nc1cccc2c(=O)n([C@@H](C)C(N)=O)ccc12)c1ccc(Cl)cc1 [Compound 265]	–	++ (26-50% F)	0.97 h	> 76%	26 to 50 µM (≈ 10.3 to 19.9 µg/mL)	–
C[C@H](C(N)=O)n1ccc2c(NC(=O)Cc3ccc(Cl)cc3F)cccc2c1=O [Compound 290]	–	+ (0-25% F)	1.64 h	> 76%	–	–
Cc1ccc2c(=O)n([C@H](C)CO)ccc2c1NC(=O)Cc1ccc(F)c(C(F)(F)F)c1 [Compound 394]	–	++ (26-50% F)	0.7 h	> 76%	> 75 µM	5.54 nM
C[C@H](CO)n1ccc2c(NC(=O)Cc3cccc(C(F)(F)F)c3F)cccc2c1=O [Compound 324]	–	++ (26-50% F)	0.7 h	> 76%	> 75 µM	–
CC(C(=O)Nc1cccc2c(=O)n([C@H](C)C(N)=O)ccc12)c1ccc(Cl)c(Cl)c1 (stereo partly shown) [Compound 254]	–	+ (0-25% F)	1.46 h	> 76%	26 to 50 µM (≈ 11.2 to 21.6 µg/mL)	–
C[C@H](C(N)=O)n1ccc2c(NC(=O)Cc3cccc(C(F)(F)F)c3F)cccc2c1=O [Compound 285]	–	++ (26-50% F)	1.24 h	> 76%	–	–
CC(C(=O)Nc1cccc2c(=O)n([C@H](C)C(N)=O)ccc12)c1ccc(Cl)cc1 (stereo partly shown) [Compound 247]	–	++ (26-50% F)	2.11 h	> 76%	–	–
C[C@H](CO)n1ccc2c(NC(=O)Cc3ccc(Cl)c(F)c3)c(Cl)ccc2c1=O [Compound 382]	–	+++ (51-75% F)	1.34 h	> 76%	–	–
C[C@H](CO)n1ccc2c(NC(=O)Cc3ccc(Cl)c(C(F)(F)F)c3)cccc2c1=O [Compound 362]	–	++ (26-50% F)	0.97 h	> 76%	–	–
C[C@@H](C(N)=O)n1ccc2c(NC(=O)Cc3ccc(Cl)c(Cl)c3)cccc2c1=O [Compound 236, (S)-2-{5-[2-(3,4-Dichloro-phenyl)-acetylamino]-1-oxo-1H-isoquinolin-2-yl}-propionamide]	–	+ (0-25% F)	0.97 h	> 76%	–	–
O=C(Cc1ccc(Cl)cc1)Nc1cccc2c(=O)n(CCO)ccc12 [Compound 4]	26 to 50%	++++ (>75% F)	1.97 h	–	–	–
CC(C)(CO)n1ccc2c(NC(=O)Cc3ccc(Cl)c(C(F)(F)F)c3)cccc2c1=O [Compound 369, 2-(4-Chloro-3-trifluoromethyl-phenyl)-N-[2-(2-hydroxy-1,1-dimethyl-ethyl)-1-oxo-1,2-dihydro-isoquinolin-5-yl]-acetamide]	–	+ (0-25% F)	0.55 h	> 76%	–	–
NC(=O)[C@H](CO)n1ccc2c(NC(=O)Cc3ccc(Cl)c(C(F)(F)F)c3)cccc2c1=O [Compound 250, (S)-2-{5-[2-(4-Chloro-3-trifluoromethyl-phenyl)-acetylamino]-1-oxo-1H-isoquinolin-2-yl}-3-hydroxy-propionamide]	–	–	0.9 h	> 76%	> 75 µM	–
C[C@H](CO)n1ccc2c(NC(=O)Cc3ccc(C(F)(F)F)cc3)c(Cl)ccc2c1=O [Compound 364]	–	++++ (>75% F)	3.15 h	> 76%	–	–
C[C@H](CO)n1ccc2c(NC(=O)Cc3ccc(C(F)(F)F)cc3C(F)(F)F)cccc2c1=O [Compound 361]	–	–	–	> 76%	> 75 µM	–
O=C(Cc1ccc(C(F)(F)F)cc1)Nc1cccc2c(=O)n(CCO)ccc12 [Compound 7]	26 to 50%	–	–	–	< 25 µM	–
C[C@H](C(N)=O)n1ccc2c(NC(=O)Cc3cccc(C(F)(F)F)c3F)c(Cl)ccc2c1=O [Compound 342]	–	+ (0-25% F)	1.16 h	> 76%	–	–
C[C@H](C(N)=O)n1ccc2c(NC(=O)Cc3ccc(Cl)c(C(F)(F)F)c3)cccc2c1=O [Compound 238, (R)-2-{5-[2-(4-Chloro-3-trifluoromethyl-phenyl)-acetylamino]-1-oxo-1H-isoquinolin-2-yl}-propionamide]	–	+ (0-25% F)	1.59 h	> 76%	–	–
C[C@H](CO)n1ccc2c(NC(=O)Cc3ccc(C(F)(F)F)cc3)cccc2c1=O [Compound 319]	–	+++ (51-75% F)	1.22 h	> 76%	–	–
CC(C(=O)Nc1cccc2c(=O)n([C@H](C)C(N)=O)ccc12)c1cccc(C(F)(F)F)c1F (stereo partly shown) [Compound 337]	–	–	–	> 76%	< 25 µM	–
C[C@@H](C(N)=O)n1ccc2c(NC(=O)Cc3ccc(Cl)cc3C(F)(F)F)cccc2c1=O [Compound 237, (S)-2-{5-[2-(4-Chloro-2-trifluoromethyl-phenyl)-acetylamino]-1-oxo-1H-isoquinolin-2-yl}-propionamide]	–	–	–	> 76%	26 to 50 µM (≈ 11.7 to 22.6 µg/mL)	–
